Measurements as given in patent publication US20060116325A1, “Methods and compositions for inhibiting hiv-coreceptor interactions” (priority 2001, published 2006).

Assays:
[1] = system: HIV-1JRFL; experiment: HIV-1JRFL infection of monocyte-derived macrophages, p24 ELISA; format: cell-based; conditions: for concentration at which significant inhibition of infection was exhibited (as low as): HIV-1JRFL, monocyte-derived macrophages; for inhibition of HIV-1JRFL infection of monocyte-derived macrophages (p24): peptide 1 hr before virus, p24 after 72 hr, FIG. 3
Description: Monocyte-derived macrophages were treated with the designated concentrations of the indicated peptide for a period of 1 hr prior to addition of HIV-1JRFL. After 2 hr, cells were washed, and viral replication was determined after 72 hr by p24 analysis. Results are representative of 4 independent experiments.
PBMCs were obtained from whole blood of normal donors and isolated by Ficoll-Paque Plus (Pharmacia Biotech, Piscataway, N.J.) density gradient centrifugation, and plated at a cell density of 2×10^6 cells/ml. Monocyte-derived macrophages (MDM) were generated from adherent human peripheral blood mononuclear cells by culture for 7 days with M-CSF (100 ng/ml). Cultures were maintained in RPMI-1640 medium (Life Technologies, Rockville, Md.) supplemented with 10% heat-inactivated endotoxin-free FCS (Hyclone, Logan, Utah), 10 μg/ml gentamicin, and 1 mM glutamine. Cells were treated with designated concentrations of the exemplary peptides 15K or 15D, and after 1 hr cells were infected with HIV-1IIIB (T cell tropic) or HIV-1JRFL (monocyte tropic) at an multiplicity of infection (MOI) of 0.1. After 2 hr, cells were washed, and cultured for additional 48-72 hr, followed by analysis of HIV replication as determined by quantification of accumulated p24 in the supernatant. The production of p24 was determined by conventional sandwich ELISA, using ELISA plates pre-coated with capture anti-p24 antibodies provided by the AIDS Vaccine Program (SAIC Frederick, NCI-FCRDC, Frederick, Md.). The captured p24 antigen was detected using rabbit anti-HIV-1 anti-p24 antibody, and a secondary goat anti-rabbit IgG (peroxidase-labeled) antibody. The captured p24 protein was detected using a 3,3′,5,5′-tetramethylbenzidine and hydrogen peroxide detection system (KPL Laboratories, Gaithersburg, Md.). The reaction was read spectrophotometrically at 450 nm. No cytotoxicity was detectable following treatment of PBMC with the peptides even at a concentration of 100 μg/ml.
The results described in the preceding Examples indicate that the 15K and 15D peptides effectively block the ability of CCR5 to serve as a receptor to mediate chemotactic responses. Additional experiments were thus carried out to determine the capacity of these peptides to inhibit coreceptor activity mediating cellular entry and infection by HIV-1JRFL (a monocyte-tropic HIV strain), using peripheral blood monocyte-derived macrophages.

[2] = target: CXCR4 (Homo sapiens, UniProt P61073); experiment: Binding of anti-CXCR4 antibody 12G5 to CEMx174 cells (flow cytometry); set-up: host or cells: CEMx174 (174xCEM); conditions: for inhibition of 12G5 antibody binding to CXCR4: CEMx174 cells, preincubation 60 min 22° C., FIG. 5
Sequence of CXCR4 (P61073 whole entry): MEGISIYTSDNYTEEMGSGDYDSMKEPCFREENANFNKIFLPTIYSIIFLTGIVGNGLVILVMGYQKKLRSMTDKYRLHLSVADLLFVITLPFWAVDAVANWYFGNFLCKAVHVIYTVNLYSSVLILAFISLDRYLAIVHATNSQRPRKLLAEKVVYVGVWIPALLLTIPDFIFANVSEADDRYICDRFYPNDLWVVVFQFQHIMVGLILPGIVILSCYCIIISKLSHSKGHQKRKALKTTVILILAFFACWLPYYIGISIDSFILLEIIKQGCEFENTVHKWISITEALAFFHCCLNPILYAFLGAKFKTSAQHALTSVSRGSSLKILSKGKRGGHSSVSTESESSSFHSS
Description: FIG. 5A. Dose dependent effect of peptide 15K in comparison with SDF-1α. FIG. 5B. The comparison of the effects of 15K and 15D. FIG. 5C. The comparison of the effects of 15K and 15KS. Cells were preincubated at 22° C. with peptides at designated concentrations of SDF-1α for 60 min. Then cells were incubated with FITC-labeled anti-human CXCR4 monoclonal antibodies 12G5 for 40 min at 22° C. and washed with FACS buffer prior to flow cytometry.
CEMx174 cells were pelleted and resuspended at 10^6 cells/ml in PBS containing 1% BSA and 0.1% sodium azide (FACS buffer). Cells were then preincubated with designated concentrations of peptides or SDF-1-α (1 μg/ml) at 22° C. for 60 min. FITC-labeled anti-human CXCR4 antibody (clone 12G5, BD PharMingen, San Diego, Calif.) was added to the cells per the manufactures instructions and further incubated at 22° C. for 40 minutes. Cells were extensively washed with FACS buffer and analyzed using a FACS Calibur flowcytometer (Becton Dickinson). HEK/CCR5 cells were suspended in Dulbecco's PBS containing 1% FCS and 0.05% NaN3 (10^4 cells in 100 μl) and incubated with or without 5 μg of MIP-1β (PeproTech, Rocky Hill, N.J.), 0.1 mM peptide 15D or 15K for 45 min at 22° C. Cells were then treated with FITC-conjugated anti-human CCR5 antibody (2D7; BD PharMingen, San Diego, Calif.), and incubated for 30 min at 22° C. Cells were washed twice, and analyzed using a FACScan flow cytometer (Becton Dickinson Immunocytometry Systems, San Jose, Calif.).
To determine if peptides 15D and 15K interact directly with chemokine receptors the effect of these and control peptides on the binding of anti-chemokine receptor antibodies to CXCR4 and CCR5 was studied. The monoclonal antibody 12G5 recognizes a conformational extracellular epitope on CXCR4. This antibody blocks the infectivity of some X4 strains of HIV-1 and HIV-2 (Endres et al., Cell 87:745-756, 1996; Hoxie et al., J. Reprod. Immunol. 41:197-211(1998); McKnight et al., J. Virol. 74:1692-1696(1997), 19, 26). […] Further, the binding of 12G5 to CXCR4 receptor-expressing cells is prevented by anti-HIV compounds. […] 73:2752-2761, 1999. To determine the importance of the particular amino acid sequence of the inhibitory activity of the peptides. The effects of peptide 15K and the corresponding scrambled peptide 15KS on binding of 12G5 to CXCR4 was compared. […] Apparently there is a direct correlation between the ability of 15K to inhibit the anti-CXCR4 antibody binding and its ability to inhibit HIV-1 infectivity since the scrambled peptide 15KS with the same amino acid comparison has reduced ability to manifest both these activities.

| Substance | concentration at which significant inhibition of infection was exhibited (as low as) [1] [ng/mL] | inhibition of HIV-1JRFL infection of monocyte-derived macrophages (p24) [1] | inhibition of 12G5 antibody binding to CXCR4 [2] | inhibition of 12G5 antibody binding compared with SDF-1α ([2]; peptide at 50 μg/ml versus SDF-1α, FIG. 5A) |
| --- | --- | --- | --- | --- |
| I R K A H C N I S R A D W N D [Peptide 15D] | 10 | significantly reduced monocyte lineage target cell infection | less effective | – |
| IRKAHCNISRAKWND [Peptide 15K] | 10 | significantly reduced monocyte lineage target cell infection | inhibited the binding of the 12G5 antibody to CXCR4 in a dose-dependent manner | approached the efficacy of SDF-1α |
